Test results published in patent publication US9771585B2, “miR-155 inhibitors for treating cutaneous T cell lymphoma (CTCL)” (miRagen Therapeutics, Inc., priority 2015, dated 2017).
l = locked nucleic acid (LNA); d = 2'-deoxy (DNA)

Legend:
Format in all cases: cell-based, human
[1] = tested on: miR-155; assay: Dual luciferase reporter assay with miR-155 binding site in HeLa cells; conditions: 2 nM oligonucleotide, 10 nM miR-155 mimic, 50 ng reporter
From the text: To assess the activity of a miR-155 inhibitor, a dual luciferase reporter assay system was used. In brief, the binding site for miR-155 was cloned into the 3′ UTR of the Renilla luciferase gene located within the commercially-available psiCHECK-2 vector system (Promega). In the absence of a miR-155 inhibitor, the expression of Renilla luciferase protein is repressed by a miR-155 mimic. In the presence of a miR-155 inhibitor, the expression of Renilla luciferase protein is de-repressed. […] Expression of either Renilla or firefly luciferase is measured through detection of light emitted by the luciferase protein.
50 ng of the dual luciferase reporter plasmid containing the miR-155 binding site was transfected into HeLa cells without a miR-155 mimic (“Reporter” only), with 10 nM miR-155 mimic (“Reporter+mimic”), with 10 nM miR-155 mimic and 2 nM of the control oligonucleotide, or with 10 nM miR-155 mimic and 2 nM of a test miR-155 oligonucleotide inhibitor of 11-14 nucleotide lengths (Table 4). The miR-155 mimic was purchased from Dharmacon (miRIDIAN microRNA Human hsa-miR-155-5p mimic; Accession number MIMAT0000646; catalog # C-300647-05-0005) and contains the mature miRNA sequence: -[…]-(SEQ ID NO: 121). The control oligonucleotide used in the experiment had the following sequence: 5′-1Cs.dTs.dAs.1Gs.dAs.1As.dAs.1Gs.1As.dGs.1Ts.dAs.1Gs.1A-3′ (SEQ ID NO: 122).

[2] = tested on: miR-155-5p; assay: Whole genome expression profiling of Sézary syndrome cell line HuT78; conditions: 8 days
Method: (§1) The activity of antimiR-155 compound 4 (SEQ ID NO: 25) was further investigated by treating the third mycosis fungoides cell line, MyLa, with compound 4 (SEQ ID NO: 25) for 4 days and 8 days and profiling the changes in gene expression. To test the specificity of compound 4 (SEQ ID NO: 25), cells of the Sézary syndrome cell line (HuT78) were treated with compound 4 (SEQ ID NO: 25) for 8 days and the changes in gene expression were profiled. Genes that are statistically changed with a false discovery rate (FDR) corrected p-value of <0.05 in response to compound 4 (SEQ ID NO: 25) in three mycosis fungoides cell lines, HuT102, MJ, and My-La, are depicted in the heat map as described above. The total number of genes in the heat map is 324.

[3] = tested on: miR-155-5p; assay: Whole genome expression profiling of mycosis fungoides cell lines (MJ, HuT102, MyLa)
Method: To gain a more complete understanding of the molecular consequences of miR-155 inhibition in mycosis fungoides cell lines, whole genome transcriptome profiling was performed on MJ and HuT102 cell lines treated with antimiR-155 compounds 3 (SEQ ID NO: 23) or 4 (SEQ ID NO: 25) for 4 days (96 hours) or 8 days. The statistically-significant gene expression signature was defined by one-way ANOVA for antimiR-treated cells compared to untreated cells at the same time point. […] The fold-change results are shown in FIGS. 9 and 10 as heat maps, as described for FIG. 2.
as §1

[4] = tested on: HuT102 cells; assay: Apoptosis (caspase 3/7 activity) in HuT102 cells
Method: (§2) Since the level of ATP correlates directly with cell number, ATP was measured to determine the cell number. […] The reduction in cell number was accompanied by an increase in apoptosis as measured by caspase 3/7 activity (FIG. 14B). The caspase 3 and 7 proteins are members of the cysteine aspartic acid-specific protease (caspase) family. The caspase family plays key effector roles in apoptosis in mammalian cells. Caspase activity was normalized to ATP levels, as all cells have a low level of basal caspase activity that can confound the results if not normalized appropriately.
HuT102 cells were treated with 0.25 μM SAHA and 10 μM compound 3 (SEQ ID NO: 23) or 4 (SEQ ID NO: 25), individually or in combination. Cells were harvested daily to measure ATP levels and caspase 3/7 activity. A similar experiment was performed with 0.50 μM SAHA.

[5] = tested on: HuT102 cells; assay: Proliferation (cell number by ATP level) of HuT102 cells; conditions: HuT-102 cells over time; compared with bexarotene
Method: as §2

[6] = tested on: HuT102 and MyLa cell lines; assay: Programmed cell death (apoptosis) of CTCL cells after passive uptake; conditions: compared to compound 3
Method: (§3) Passive uptake of antimiR-155 compounds by CTCL cells produced a significant reduction in cellular proliferation and induced programmed cell death.
as §2

[7] = tested on: My-La cells; assay: Proliferation of My-La cells; conditions: compared to compound 3
From the text: (§4) FIGS. 17A and 17B show proliferation and activation of caspase 3/7 over time with compounds 3 (SEQ ID NO: 23) and 4 (SEQ ID NO: 25).

[8] = tested on: My-La cells; assay: Caspase 3/7 activity in My-La cells; conditions: compared to compound 3
From the text: as §4

[9] = tested on: HuT102 and MyLa cell lines; assay: Cellular proliferation of CTCL cells after passive uptake; conditions: compared to compound 3
Method: as §3, §2

[10] = tested on: miR-155-5p; assay: Real time PCR of miR-155 direct target genes (four-gene signature) in mycosis fungoides cell lines MJ, HuT102, My-La; conditions: for gene expression signature of four direct miR-155-5p targets versus untreated cells: MJ and HuT102 cells, 10 μM, 72 hours; for target de-repression: both HuT102 and MyLa cell lines, compared to compound 3; for antimiR activity by four-gene signature (Bach1, Jarid2, Picalm, Ship1): cumulative across 2, 10 and 50 μM and three mycosis fungoides cell lines, compared to compounds 1 and 3
Method: CTCL cell lines were cultured in complete growth medium with the addition of antimiR-155 compound 1 (SEQ ID NO: 27), compound 2 (SEQ ID NO: 22), compound 3 (SEQ ID NO: 23), and compound 4 (SEQ ID NO: 25) at concentrations ranging from 2 μM to 50 μM. The antimiRs were added to the medium without any additional components to enhance cellular uptake. Cells were harvested after 72 hours of treatment and total RNA was purified. Real time PCR was performed for 13 direct gene targets of miR-155 (Worm et al. 2009; O'Connell et al. 2010; Zhang et al. 2012; and miRagen unpublished data). The relative fold-change in the expression of the 13 genes in the antimiR-treated cells compared to the untreated cells was calculated. […] Four predicted direct targets that lacked expression in at least one cell line were omitted. The gene expression fold-changes were log10-transformed, plotted on a grayscale, representing the highest relative increase in gene expression, and conversely, the greatest reduction in gene expression.
Four direct gene targets of miR-155-5p (Bach1, Jarid2, Picalm, and Ship1) were chosen for additional analysis, as these four genes were modulated by antimiR-155 in all three mycosis fungoides cell lines (MJ, HuT102, and My-La). These genes were chosen to represent the gene expression signature for antimiR activity in vitro. Additionally, the four-gene signature was used to compare the activity of the antimiR compounds. These gene changes were reproducible over three independent experiments with cells of varying passage numbers. FIGS. 3, 4, 5, 6, and 7 show the fold-change results of this four-gene signature in the HuT102, MJ, HH, My-La, and Hut78 cell lines, respectively. * p-value <0.0001 vs untreated by nonparametric Mann-Whitney test. The Mann-Whitney test was chosen because the variances are unequal between the treatments compared to untreated cells.
The control oligonucleotide was a 14-nucleotide antimiR targeting a C. elegans miRNA not expressed in mammals (control 1). The second oligo is a scramble of the 14-nucleotide sequence of antimiR-155 compound 4 (control 2). The MJ and HuT102 cell lines were incubated with 10 μM antimiR-155 compounds 3 (SEQ ID NO: 23) or 4 (SEQ ID NO: 25) or the two control oligos for 72 hours.

| Substance | apoptotic activity [6] | inhibition of proliferation [9] | gene expression signature of four direct miR-155-5p targets versus untreated cells [10] | target de-repression [10] | antimiR activity by four-gene signature (Bach1, Jarid2, Picalm, Ship1) [10] | further results |
| --- | --- | --- | --- | --- | --- | --- |
| 5′-1Cs.dTs.dAs.1Gs.dAs.1As.dAs.1Gs.1As.dGs.1Ts.dAs.1Gs.1A-3′ (CTAGAAAGAGTAGA; LNA/DNA mix, phosphorothioate backbone; miR-155 control oligo 11317; (1)..(14) May be joined through phosphorothioate bonds; modified_base (1)..(1) May be locked nucleic acid cytidine; modified_base (4)..(4) May be locked nucleic acid guanosine; modified_base (6)..(6) May be locked nucleic acid adenosine; modified_base (8)..(8) May be locked nucleic acid guanosine; modified_base (9)..(9) May be locked nucleic acid adenosine; modified_ba) [control oligonucleotide, control oligonucleotide used in the dual luciferase reporter experiment] | – | – | – | – | – | de-repression of Renilla luciferase expression [1]: did not de-repress the expression of luciferase |
| 5′-lCs.dAs.lCs.dGs.dAs.lTs.lTs.dAs.lGs.dCs.lAs.lTs.lTs.lA-3′ (CACGATTAGCATTA; sugars from the 5' end ldlddlldldllll, all phosphorothioate, methylation of C not given here) [compound 4] | greater apoptotic activity | greater inhibition of proliferation | statistically significantly different from that of untreated cells | greater target de-repression | more active | change in gene expression [2]: did not show much change in the gene expression; genes up-regulated or down-regulated in all three mycosis fungoides cell lines ([3]; Day 4 and Day 8 signatures combined, Table 2): 587 genes; magnitude of gene regulation ([3]; MJ and HuT102, day 4 and day 8, heat map intensity): greater magnitude of gene regulation; apoptosis (caspase 3/7 activity) in combination with SAHA ([4]; HuT102, 10 μM compound combined with 0.25 or 0.5 μM SAHA, compared to each treatment alone): increased apoptosis; induction of apoptosis (caspase 3/7 activity normalized to ATP) ([4]; HuT-102 cells over time, compared with bexarotene): greater induction of apoptosis than bexarotene; effect on cell number (ATP) [5]: comparable to that seen with bexarotene; proliferation over time [7]: greater activity; activation of caspase 3/7 over time [8]: greater activity |
| 5′-lCs.dGs.lAs.lTs.lTs.dAs.lGs.dCs.lAs.lTs.lTs.lA-3′ (CGATTAGCATTA; sugars from the 5' end ldllldldllll, all phosphorothioate, methylation of C not given here) [compound 3] | – | – | statistically significantly different from that of untreated cells | – | – | – |
| 5′-lCs.dGs.lAs.lTs.lTs.lAs.lGs.dCs.lAs.lTs.lTs.lA-3′ (CGATTAGCATTA; sugars from the 5' end l1 d1 l5 d1 l4, all phosphorothioate, methylation of C not given here) [compound 2] | greater apoptotic activity | greater inhibition of proliferation | – | greater target de-repression | more active | – |
